Compound	melting point [°C]
CC(C)(C)OC(=O)N1CC=C(c2ccc(O)cc2)CC1	134 to 136
O=C1CCSc2ccc(C(=O)O)cc2N1	262 to 264
NS(=O)(=O)N1CCNCC1	164 to 166
CCCOc1ccc(/C=C/C(=O)O)cc1	179 to 181
O=C(O)Cn1c(-c2cscn2)nc2ccccc21	256 to 258
CSCCC(NS(=O)(=O)c1ccc2c(c1)OCCO2)C(=O)O (centres undefined)	93 to 96
CCOc1ccccc1Oc1ccccc1C(=O)O	96 to 98
CC(=O)Nc1cccc(S(=O)(=O)Cl)c1	78 to 80
Cc1ccccc1C(=O)C=O	63 to 65
O=C(O)Cc1ccc(NS(=O)(=O)c2ccc(F)cc2)cc1	180 to 182
O=C(O)c1cc([N+](=O)[O-])cnc1Br	135 to 137
CC1CNC(=O)N(c2ccccc2)C1=O (centres undefined)	174 to 176
CC(C)(C)NC(=O)NC(=O)CCl	109 to 112
NS(=O)(=O)c1ccc2c(c1)OCO2	155 to 157
ClCc1coc(-c2ccccc2Br)n1	46 to 48
COc1cc(N)c(C(=O)O)c(OC)c1	106 to 108
NC(=O)c1cccc([N+](=O)[O-])c1O	154 to 156
COc1ccccc1CC(C)=CC(=O)O	96 to 98
COc1ccc(C)nc1N	87 to 89
Cc1cc(Br)cn2c(C=O)cnc12	152 to 154
CCOC(=O)Nc1ccc(N)cc1	73 to 75
NN=c1ncc(F)c[nH]1	119 to 121
CC(C)(C)OC(=O)NC(COS(C)(=O)=O)COS(C)(=O)=O	96 to 98
Nc1ccc(F)c(NC(=O)c2ccsc2)c1	118 to 120

Compound	melting point [°C]
O=C(O)c1ccc(=O)n(CCOc2ccccc2)n1	138 to 140
O=C(Nc1ccc(F)cc1)c1ccc2c(c1)OCO2	186 to 188
Cn1cc(S(=O)(=O)NN)c(=O)n(C)c1=O	134 to 136
N#CC(=Cc1ccc2c(c1)OCO2)C(=O)O	205 to 207
CC(N)c1cccc(O)c1 (centres undefined)	166 to 168
NC(=S)COc1ccc(F)cc1	120 to 122
Cc1nn2c(S)nnc2nc1O	305 to 307
NNC(=O)Cc1cccnc1	99 to 101
Cc1cn2c(n1)CCC(N)C2 (centres undefined)	49 to 51
CCc1cccc(CC)c1-n1ccnc1S	196 to 198
O=C(O)c1cccc(S(=O)(=O)NCc2ccco2)c1	190 to 192
CC(=O)Nc1cc(S(=O)(=O)Cl)ccc1C	145 to 147
COc1ccc(C)cc1NC(=O)C1CCCN1 (centres undefined)	103 to 105
CN(Cc1ccccc1)C(=O)c1ccccc1C(=O)O	153 to 155
CSCCC(NC(=O)c1ccco1)C(=O)O (centres undefined)	185 to 187
Cc1cc(C(=O)O)c(F)cc1F	159 to 161
CC1(c2ccc(F)cc2)NC(=O)N(CC(=O)O)C1=O (centres undefined)	167 to 169
O=C(O)c1ccc(S(=O)(=O)C(F)F)cc1	232 to 234
O=C(O)CCCOc1cccc(Cl)c1Cl	121 to 123
O=C(CCl)NCC(=O)c1ccccc1Br	103 to 105
CC(=O)NCCc1ccc(C(C)=O)cc1	94 to 96
O=CC(Br)C=Nc1cnc(Br)cn1 (centres undefined)	177 to 179
CC(C)c1cc(NC(=O)CCl)on1	75 to 77
Cc1ccc(C(=O)CC#N)c(C)c1	78 to 80

Compound	melting point [°C]
O=C1NC(=O)C(Cc2c[nH]c3ccccc23)N1 (centres undefined)	235 to 237
COc1ccc(S(=O)(=O)Cl)cc1C1(C)NC(=O)NC1=O (centres undefined)	214 to 216
Cc1cccc(NC(=O)C=NO)c1C	110 to 112
CCC(C#N)NC(=O)c1ccccc1 (centres undefined)	104 to 106
Cc1nccn1-c1cccc(F)n1	97 to 99
O=C(O)C1CCS(=O)(=O)C1 (centres undefined)	135 to 137
NS(=O)(=O)c1ccc2c(c1)CCCO2	145 to 147
Nc1ncccc1OCc1cccc(Cl)c1	84 to 86
CCCC(=O)N1CCCC(C(=O)O)C1 (centres undefined)	96 to 98
O=C(O)Cn1c(=O)[nH]c2ccccc21	247 to 249
CS(=O)(=O)Cc1c(C(=O)O)sc2ccccc12	276 to 278
c1ccc2c(c1)ncn2C1CCCNC1 (centres undefined)	104 to 106
Cc1ccc(CNC(=O)c2c[nH]nc2N)cc1	168 to 170
COc1ccc(Br)c(S(N)(=O)=O)c1	119 to 121
Cc1nc2ccccc2nc1Br	102 to 104
CC(C)OC(=O)c1ccnc(O)c1	145 to 147
Clc1ccc(-c2nnc(CNC3CC3)o2)cc1	104 to 106
Cc1cc(Oc2ccc(C(=O)O)cn2)ccc1C(C)C	122 to 124
Cc1cc(C(=O)O)c2c(C)nn(C(C)(C)C)c2n1	189 to 191
CCOc1cc(C(=O)N2CCCC(C(=O)O)C2)cc(OCC)c1OCC (centres undefined)	183 to 185
O=C1CCc2cc(F)c([N+](=O)[O-])cc2N1	154 to 156
NNc1ccc(S(=O)(=O)C(F)F)cc1	72 to 74
Cc1cc(=O)n2nc(Br)sc2n1	167 to 169
CCOC(=O)c1cc(CC)sc1N	69 to 71

Compound	melting point [°C]
O=C1NCCNC1c1cccc(Br)c1 (centres undefined)	117 to 119
O=C(Nc1cccc(Cn2cccnc2=O)c1)OCC(F)(F)F	173 to 175
COc1ccc(CNc2ccncc2)cc1	126 to 128
O=Cc1c(-c2ccccc2)nc2sccn12	128 to 130
COc1ccc(Nc2ccccc2C(=O)O)cc1	184 to 186
NCCS(=O)(=O)c1ccc(Br)cc1	87 to 89
O=C(O)c1ccc(Br)cc1S	203 to 205
Cc1n[nH]c(O)c1C#N	229 to 231
Cc1ncc(C(=O)O)c(=O)[nH]1	310 to 312
NS(=O)(=O)c1cc(Cl)ccc1Cl	179 to 181
COc1cc(CC#N)cc(Cl)c1OCC(F)(F)F	98 to 100
NC(=O)CN1CCC(O)CC1	114 to 116
O=C(O)c1scnc1C1CC1	204 to 206
Cc1nc(COc2ccc(C(=O)O)cc2)cs1	196 to 198
O=C(O)c1ccccc1NS(=O)(=O)c1cccc([N+](=O)[O-])c1	185 to 187
O=C(O)C1CCCN(C(=O)NC2CCCC2)C1 (centres undefined)	167 to 169
CN(C(=O)c1ccc(Cl)cc1)c1ccc(N)cc1	152 to 154
O=C(O)CNC(=O)OCC(F)(F)F	98 to 100
O=C(O)c1cc(-c2ccc(Cl)c(Cl)c2)ns1	208 to 210
Cc1ccc(-c2cc(C(=O)NN)c3ccccc3n2)cc1	85 to 90
O=C(O)c1cc2c(s1)-c1cc(F)ccc1SC2	279 to 281
Cc1nn(C)c(C(=O)O)c1[N+](=O)[O-]	146 to 148
O=C(CCl)NCC(=O)c1ccccc1	124 to 126
N#Cc1sc(-c2cccc(Cl)c2)cc1N	190 to 192

Compound	melting point [°C]
CC(C)(C)C1CCc2[nH]c(=O)sc2C1 (centres undefined)	205 to 207
Cc1ccc(S)nc1	199 to 201
Cc1cc(Br)cc(C=O)c1OC(F)F	46 to 48
CC1Oc2ccccc2NC1=O (centres undefined)	142 to 144
O=C(O)c1cnn(-c2ccc(Cl)nn2)c1C(F)(F)F	99 to 101
O=[N+]([O-])c1cccc(Cl)c1S(=O)(=O)Cl	81 to 83
Cc1[nH]nc(C(N)=O)c1N	219 to 221
Cc1cccn2cc(COc3ccc(C=O)cc3)nc12	122 to 124
Nc1cc(C(F)(F)F)ccc1NCc1ccccc1	70 to 75
O=C(O)c1ccccc1SC(F)F	114 to 116
CCNc1nc(S)nc2ccccc12	283 to 285
O=C(O)c1cc2c(F)cccc2s1	214 to 216
Nc1ccc(Cl)c(S(N)(=O)=O)c1	161 to 163
COc1ccc(-c2nnc(N)o2)cc1OC	235 to 237
O=[N+]([O-])c1ccc(S(=O)(=O)Cl)c(Cl)c1	75 to 77
COc1nc(N)n[nH]1	165 to 167
Nc1cccc(-c2csc(N)n2)c1	174 to 176
CCNC(=O)COc1cccc(C(C)N)c1 (centres undefined)	79 to 81
CC(C)NC(=O)Nc1ccc(CN)cc1	133 to 135
CC(c1nnc(S)n1-c1ccc(F)cc1)N1CCCCC1 (centres undefined)	115 to 117
CCOC(=O)c1cc2c(nc1N)CCCC2	127 to 129
O=C(O)CSc1csc(-c2ccc(Br)cc2)n1	178 to 180
NCC(=O)Nc1cccc(F)c1	82 to 84
CC1CN(S(=O)(=O)c2cccc(C(=O)O)c2)CC(C)O1 (centres undefined)	188 to 190

Compound	melting point [°C]
Cc1csc(NC2CC2)n1	64 to 66
CC(NC(=O)CCl)C1CC2CCC1C2 (centres undefined)	87 to 89
O=C(O)CNS(=O)(=O)c1ccc(F)cc1	146 to 148
COc1cc(NC(C)=O)ccc1I	138 to 140
O=C(O)C1CCCCC1C(=O)N1CCCC1 (centres undefined)	119 to 121
Cc1ccsc1-c1nnc(N)[nH]1	189 to 191
c1ccc2nn(C3CCNC3)cc2c1 (centres undefined)	79 to 81
CN(C(=O)c1cccc(N)c1)c1ccccc1	144 to 146
COc1cc(NC(=O)C2CC2)c(C(=O)O)cc1OC	236 to 238
CCn1nccc1C=CC(=O)O	151 to 153
Clc1ccncc1Cl	22 to 23
O=C1COc2cc([N+](=O)[O-])ccc2N1	225 to 227
NNc1ncnc2sc(-c3ccccc3)cc12	263 to 265
Sc1nnc(-c2ccncc2)n1C1CC1	303 to 305
COc1cc(/C=C(/C#N)C(=O)O)ccc1O	199 to 201
Cn1cc(S(N)(=O)=O)c2ccccc21	194 to 196
COC(=O)c1cc(N)cc(C(F)(F)F)c1	78 to 80
N#Cc1ccc(N2CCOC2=O)nc1	186 to 188
COC(=O)c1c(NC(=O)OC(C)(C)C)c[nH]c1C	109 to 111
CC(C(=O)O)N(C)C(=O)OCC1c2ccccc2-c2ccccc21 (centres undefined)	119 to 121
CCN1C(=O)C(=O)c2cc(Br)ccc21	144 to 146
O=C(NC1CCCC1)c1ccccc1O	75 to 77
CCOC(=O)C1=C(CBr)C(C)(C)OC1=O	87 to 89
Cc1cc(Br)oc1C(=O)O	169 to 171
